± gives the standard deviation of the reports.
Structure (SMILES)	glass transition temperature [°C]
*c1ccc(OCCN(CC)c2ccc(-c3ccc(C(=C(C#N)C#N)c4ccc(N(CC)CC)cc4)s3)cc2)c(-c2cc(-c3ccccc3)c3cc(Oc4ccc5nc(*)cc(-c6ccccc6)c5c4)ccc3n2)c1 (repeat unit)	215.00
*CC1CCC(COC(=O)CCC(=O)O*)CC1 (repeat unit)	-1.00
*c1ccc(/C=N/c2ccc(C(c3ccccc3)c3ccc(/N=C/c4ccc(-c5ccc(*)s5)cc4)cc3)cc2)cc1 (repeat unit)	129.00
*CC(*)(C)C(=O)OCc1cc(Cl)cc(Cl)c1 (repeat unit)	30.0
*CC(*)(C)c1ccc(C)cc1 (repeat unit)	176.00
*[Se]c1c(Cl)c(Cl)c(*)c(Cl)c1Cl (repeat unit)	104.00
*CC(*)CCCCCCCCCCCCCCCC (repeat unit)	55.00
*Oc1ccc(/C=C/C(=O)c2ccc(Oc3ccc(C(C)(C)c4ccc(*)c(C)c4)cc3C)cc2)cc1 (repeat unit)	157.00
*Oc1ccc(S(=O)(=O)c2ccc(Oc3ccc(C(C)(C)c4ccc(*)cc4)cc3)cc2)c(N)c1 (repeat unit)	202.00
*OC(COC(=O)c1ccc(C(*)=O)c2ccccc12)COc1ccc(/N=N/c2ccc(C#N)cc2)cc1 (repeat unit)	117.00
*CC(*)C(=O)OCCOC (repeat unit)	-34.00
*[Si](*)(CCCCCC)c1ccccc1 (repeat unit)	-70.00
*CC(*)(C)C(=O)OCC(C)(C)C (repeat unit) [Poly(neopentyl methacrylate) ]	33 ± 3.7
*N=P(*)(OCCOCCOCCOP1(OCCOCCOC)=NP(OCCOCCOC)(OCCOCCOC)=NP(OCCOCCOC)(OCCOCCOC)=N1)OCCOCCOCCOP1(OCCOCCOC)=NP(OCCOCCOC)(OCCOCCOC)=NP(OCCOCCOC)(OCCOCCOC)=N1 (repeat unit)	-38.00
*Oc1ccc(NC(=O)c2cc(NC(=O)c3ccncc3)cc(C(=O)Nc3ccc(*)cc3)c2)cc1 (repeat unit)	305.00
*Oc1ccc2c(c1)C1(CC2(C)C)CC(C)(C)c2ccc(OC(*)=O)cc21 (repeat unit)	228.00
*CCc1ccc(*)c2ccccc12 (repeat unit)	160.00
*/C=C/C1CC(*)C2C(=O)N(CCCCCCCCC)C(=O)C12 (repeat unit)	52.00
*Oc1ccc(S(=O)(=O)c2ccc(Oc3cc(C)c(C(c4cc(C(C)C)c(*)cc4C)c4ccccc4C(=O)O)cc3C(C)C)cc2)cc1 (repeat unit)	240.00
*/C=C/c1cc(OCC(CC)CCCC)c(/C=C/c2cc(OC)c(*)cc2OC)cc1OC (repeat unit)	110.00
*CC(*)c1ccc(B(Oc2ccc(-c3ccc(N(C)C)cc3)c3cccnc23)c2ccc(C(C)(C)C)cc2)cc1 (repeat unit)	230.00
*CC(*)(C)C(=O)OCc1c(Cl)cccc1Cl (repeat unit)	58.90

The remaining lines, values ahead:

glass transition temperature [°C]	Structure (SMILES)
123.50	*Oc1ccc(C(C)(C)c2ccc(OC(=O)NC(=O)c3cc(C(=O)NC(*)=O)cc(C(C)(C)C)c3)cc2)cc1 (repeat unit)
167.00	*Nc1cc(NC(=O)c2cc(OCCN(C)c3ccc(C#N)cc3)cc(C(*)=O)c2)cc(C(=O)OCCN(C)c2ccc(C#N)cc2)c1 (repeat unit)
382.00	*C(=O)c1ccc2c(c1)C(=O)N(c1ccc(-c3ccc(N4C(=O)c5ccc(*)cc5C4=O)cc3)cc1)C2=O (repeat unit)
289.00	*C(=O)c1ccc2c(c1)C(=O)N(c1ccc(C(=O)c3ccccc3N3C(=O)c4ccc(*)cc4C3=O)cc1)C2=O (repeat unit)
112.00	*/C=C/c1sc(-c2ccc(-c3ccc(-c4sc(/C=C/C5=CC(=C(C#N)C#N)C=C(*)O5)c(CCCCCC)c4CCCCCC)s3)s2)c(CCCCCC)c1CCCCCC (repeat unit)
61.00	*CCCCCCCOC(=O)Nc1ccc(C)c(NC(=O)O*)c1 (repeat unit)
262.00	*c1ccc(Oc2ccc(C3(c4ccc(Oc5ccc(N6C(=O)c7ccc(Oc8ccc(C9(c%10ccc(Oc%11ccc%12c(c%11)C(=O)N(*)C%12=O)cc%10)CCCCCCCCCCC9)cc8)cc7C6=O)cc5)cc4)C4CC5CC(C4)CC3C5)cc2)cc1 (repeat unit)
58.50	*CCCCCOC(=O)c1ccc2cc(C(=O)O*)ccc2c1 (repeat unit)
217.00	*C(=O)c1ccc(Oc2ccc(C(C)(C)c3ccc(Oc4ccc(C(=O)c5ccc6c(c5)C(=O)N(c5ccc(Oc7ccc(N8C(=O)c9ccc(*)cc9C8=O)cc7)cc5)C6=O)cc4)cc3)cc2)cc1 (repeat unit)
73.00	*CCCCCCOC(=O)OCCCCCCN1C(=O)c2ccc(-c3ccc(-c4ccc5c(c4)C(=O)N(*)C5=O)cc3)cc2C1=O (repeat unit)
25.00	*Oc1ccccc1C(=O)OC(=O)c1ccccc1OC(=O)CCCCCCCC(*)=O (repeat unit)
104.00	*CCCCOC(=O)OCCCCN1C(=O)c2ccc(-c3ccc4c(c3)C(=O)N(*)C4=O)cc2C1=O (repeat unit)
55.00	*Oc1ccc(CC(NC(=O)CCc2ccc(OC(=O)CCC(C)CC(*)=O)cc2)C(=O)OCc2ccccc2)cc1 (repeat unit)
305.00	*C(=O)c1ccc2c(c1)C(=O)N(c1cc(N3C(=O)c4ccc(*)cc4C3=O)c(C)cc1C)C2=O (repeat unit)
89.00	*CCCCCCCCCN1C(=O)c2ccc(Oc3ccc4c(c3)C(=O)N(*)C4=O)cc2C1=O (repeat unit)
74.00	*CCCCCCCCCCNC(=O)/C=C(\C)C(=O)N* (repeat unit)
125.00	*c1cccc(OCCCCCCCCCCOc2cccc(N3C(=O)c4ccc(-c5ccc6c(c5)C(=O)N(*)C6=O)cc4C3=O)c2)c1 (repeat unit)
55.00	*CCCCCCn1ccc(-c2ccc(-c3ccn(*)n3)cc2)n1 (repeat unit)
325.00	*C(=O)c1ccc2nc(-c3ccccc3)c(-c3ccc(-c4nc5cc(*)ccc5nc4-c4ccccc4)cc3)nc2c1 (repeat unit)
170.00	*c1ccc2c(c1)C(CCCCCC)(CCCCCC)c1cc(-c3ccc4c(c3)c3cc(*)ccc3n4-c3ccccc3)ccc1-2 (repeat unit)
159.00	*c1cc(OCCCCCCCCCCCCCCCC)cc(N2C(=O)c3ccc(Oc4ccc5c(c4)C(=O)N(*)C5=O)cc3C2=O)c1 (repeat unit)
262.00	*c1ccc(Oc2ccc(-c3ccc(Oc4ccc(N5C(=O)c6ccc(Oc7cc(C(C)(C)C)c(Oc8ccc9c(c8)C(=O)N(*)C9=O)cc7C(C)(C)C)cc6C5=O)cc4)cc3)cc2)cc1 (repeat unit)
342.00	*c1ccc(-c2cc(C(C)(C)C)c(Oc3ccc(N4C(=O)c5ccc(Oc6ccc7c(c6)C(=O)N(*)C7=O)cc5C4=O)cc3)c(C(C)(C)C)c2)cc1 (repeat unit)
370.50	*c1ccc2c(c1)C(=O)N(c1c(C)cc(-c3cc(C)c(N4C(=O)c5ccc(C(*)(C(F)(F)F)C(F)(F)F)cc5C4=O)c(C)c3)cc1C)C2=O (repeat unit)

Reference: the PolyMetriX glass transition set
